Here are results for 16 molecules from patent US20240010635A1, “NOVEL INDIRUBIN DERIVATIVES HAVING HETEROBICYCLIC MOIETIES AND THE USE THEREOF” (priority 2022, published 2024).

What is called IC50 is the point on the concentration scale where inhibition reaches its midpoint.

For one assay, the target named is T1, FLT3 D835Y (Homo sapiens, UniProt P36888, D835Y).
T1 construct: Recombinant proteins containing the FLT3 and FLT3 (D835Y) domains were purchased from Promega; purchased Promega V4514
T1 sequence (P36888 610-943 D835Y limits assumed): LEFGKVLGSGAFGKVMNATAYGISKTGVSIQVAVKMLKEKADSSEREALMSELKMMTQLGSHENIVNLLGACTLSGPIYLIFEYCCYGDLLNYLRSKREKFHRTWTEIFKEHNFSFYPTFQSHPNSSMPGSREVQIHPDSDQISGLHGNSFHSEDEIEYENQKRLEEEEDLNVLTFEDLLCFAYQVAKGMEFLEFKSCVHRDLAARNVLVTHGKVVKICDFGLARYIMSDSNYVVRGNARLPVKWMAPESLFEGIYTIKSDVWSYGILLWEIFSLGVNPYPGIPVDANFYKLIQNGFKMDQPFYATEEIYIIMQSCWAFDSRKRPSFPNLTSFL
In words: ADP-Glo kinase assay, FLT3 D835Y. Type of assay: biochemical. Conditions: recombinant FLT3 (D835Y), 120 min room temperature, read-out: Enzyme activity (IC50, nM) FLT3 D835Y. The procedure:
(§1) FLT3 activity inhibition was measured by ADP-Glo kinase assay (Promega, cat #V9101). ADP-Glo kinase analysis method is an emission ADP detect method which measures kinase activity by quantification of ADP amount produced during kinase reaction and provides uniform high-throughput screening method.
(§2) Analysis performed in two steps. First, after kinase reaction, ADP-Glo™ reagent of equal volume was added to finish kinase reaction, and then the rest ATP was exhausted. Second, Kinase Detection Reagent was added to convert ADP to ATP and newly synthesized ATP was measured by luciferase/luciferin reaction at the same time. Generated light was measured by using luminometer. The measured luminescence amount can be applied to the ATP→ADP standard conversion curve to confirm the correlation with the ADP concentration.
(§3) Recombinant proteins containing the FLT3 and FLT3 (D835Y) domains were purchased from Promega (cat #V4064, cat #V4514), respectively. According to the manufacturer's instructions, optimal enzyme, ATP, and substrate concentration were established using the ADP-Glo™ Kinase Assay (Promega, USA). Kinase reaction buffer 5× (200 mM Tris-HCl, pH 7.5, 100 mM MgCl2, 0.5 mg/ml BSA) was diluted and used, and the diluted compound of the present invention (5×, 1 μl), FLT3 enzyme or FLT3/D835Y enzyme (2.5×, 2 μl) and substrate/ATP mixture (2.5×, 2 μl), were mixed sequentially and reacted at room temperature for 120 minutes. Then, ADP-Glo™ Reagent (5 μl) was added and reacted for 40 min at room temperature. Finally, after adding a reagent for detection (Kinase Detection Reagent, 10 μl), reacting at room temperature for 30 min, and then phosphorylation of substrate peptide was measured by measuring luciferase signal (Integration time 0.5-1 second) using SpectraMax ID5 reader (Molecular Devices LLC., San Jose, CA, USA). IC50 was calculated by nonlinear regression using Prism version 5.01 (GrapghPad).
A general note: ADP-Glo first removes unused ATP, then detects ADP through luciferase.

A further assay addresses T2, FLT3 WT (Homo sapiens, UniProt P36888).
T2 construct: Recombinant proteins containing the FLT3 and FLT3 (D835Y) domains were purchased from Promega; purchased Promega V4064
T2 sequence (P36888 610-943 limits assumed): T1 sequence (P36888 610-943 D835Y limits assumed) with Y226D
The experiment in a line: ADP-Glo kinase assay, FLT3 WT. In kind it is biochemical. Conditions: recombinant FLT3, ADP-Glo, 120 min room temperature; read-out: Enzyme activity (IC50, nM) FLT3 WT. As for the experimental part:
as §1, §2, §3

A further assay concerns Molm-14. The experiment in a line: Cell proliferation inhibition in AML cell line Molm-14 (Alamar Blue). In kind it is cell-based. As to conditions: Homo sapiens, Molm-14, 72 hours, read-out: Cell proliferation inhibitory activity (GI50) Molm-14. From the text:
(§4) Cell proliferation inhibition experiments on acute myeloid leukemia (AML) cell lines tested FLT3 inhibitory activity using MV4-11, Molm-13, and Molm-14 cells, which are FLT3-ITD-expressed AML cell lines. The origin of all cell lines is human-derived cell lines, and the place of purchase and culture conditions of each cell line are as follows.
(§5) MV4-11 cells were purchased form the American Type Culture Collection (ATCC, Rockville, MD, USA, cat #CRL-9591), Molm-13 (DSMZ, cat #ACC554), Molm-14 (DSMZ, cat #ACC777), and then cultured in RPMI 1640 medium (Corning Co. 10-040-CV) supplemented with 10% fetal bovine serum, 1% penicillin/streptomycin and 4 mM L-glutamine (Life Technology, GrandIsland, NY).
(§6) Cell viability was evaluated by Resazurin redox-based analysis method with Alamar Blue Assay Kit (Invitrogen, USA). Specifically, for MV4-11, Molm-13 and Molm-14 cells, 8000 cells were plated on 384-well plates in 45 μl of medium. Compounds were treated with dimethyl sulfoxide (DMSO) as a negative control group. After 3 days (72 hours) of compound addition, 5 μl of Alamar Blue kit reagent was added to each well of 384-well plate and incubated at 37° C. for 2 hours in a humidified CO2 incubator. After incubation, fluorescence density (Flu) was measured at a wavelength of 544 nm and 590 nm using SpectraMax iD3 Multi Mode Microplate Reader (Molecular Devices, ID3-STD). GI50 was calculated by nonlinear regression using Prism version 5.01 (GraphPad, LaJolla, CA, USA).
(In general: Alamar Blue is a resazurin reagent that responds to reducing activity.)

The subject of the next assay is Molm-13. The experiment in a line: Cell proliferation inhibition in AML cell line Molm-13 (Alamar Blue). Conditions: Homo sapiens, Molm-13, 72 hours, read-out: Cell proliferation inhibitory activity (GI50) Molm-13. In kind it is cell-based.
From the text: as §4, §5, §6

Where a chain is given by its changes, count along the chain named. Like-named read-outs stand apart in the source and are kept apart here.

As to `O=C1Nc2ccccc2/C1=C1/Nc2ccccc2/C1=N\OCCN1CC2(CNC2)C1` [Example 1, (2Z,3E)-3-((2-(2,6-diazaspiro[3.3]heptan-2-yl)ethoxy)imino)-[2,3′-biindolinylidene]-2′-one], the IC50 at FLT3 D835Y was found to be 0.329 nM; at FLT3 WT it was 1.42 nM.
For `O=C1Nc2ccccc2/C1=C1/Nc2ccccc2/C1=N\OCCN[C@H]1[C@@H]2CNC[C@@H]21` [Example 2, (2Z,3E)-3-((2-((1R,5S,6s)-3-azabicyclo[3.1.0]hexan-6-ylamino)ethoxy)imino)-[2,3′-biindolinylidene]-2′-one], in that order: 0.524 nM and 2.49 nM.
For `N[C@@H]1[C@H]2CN(CCO/N=C3/C(=C4/C(=O)Nc5ccccc54)Nc4ccccc43)C[C@@H]12` [Example 3, (2Z,3E)-3-((2-((1R,5S,6s)-6-amino-3-azabicyclo[3.1.0]hexan-3-yl)ethoxy)imino)-[2,3′-biindolinylidene]-2′-one], in that order: 0.303 nM and 3.78 nM.
As to `O=C1Nc2ccccc2/C1=C1/Nc2ccccc2/C1=N\OCCN1C[C@H]2C[C@@H]1CN2` [Example 4, (2Z,3E)-3-((2-((1R,4R)-2,5-diazabicyclo[2.2.1]heptan-2-yl)ethoxy)imino)-[2,3′-biindolinylidene]-2′-one], the GI50 with Molm-14 (pM) turned out to be 30 pM; in the assay on Molm-13 (pM) it was 40 pM. The IC50 on FLT3 D835Y worked out at 0.216 nM; at FLT3 WT it was 1.37 nM.
In the case of `O=C1Nc2ccccc2/C1=C1/Nc2ccccc2/C1=N\OCCN1C[C@@H]2C[C@H]1CN2` [Example 5, (2Z,3E)-3-((2-((1S,4S)-2,5-diazabicyclo[2.2.1]heptan-2-yl)ethoxy)imino)-[2,3′-biindolinylidene]-2′-one], the GI50 with Molm-14 was 1660 pM; with Molm-13 it was 1780 pM. For the same molecule, the results for the IC50 at FLT3 D835Y and on FLT3 WT were 0.135 nM and 1.57 nM, respectively.
As to `O=C1Nc2ccc(F)cc2/C1=C1/Nc2ccccc2/C1=N\OCCN1CC2(CNC2)C1` [Example 6, (2Z,3E)-3-((2-(2,6-diazaspiro[3.3]heptan-2-yl)ethoxy)imino)-5′-fluoro-[2,3′-biindolinylidene]-2′-one], the IC50 at FLT3 D835Y came out at 0.488 nM; on FLT3 WT, 2.44 nM.
Regarding `O=C1Nc2ccc(F)cc2/C1=C1/Nc2ccccc2/C1=N\OCCN[C@H]1[C@@H]2CNC[C@@H]21` [Example 7, (2Z,3E)-3-((2-((1R,5S,6s)-3-azabicyclo[3.1.0]hexan-6-ylamino)ethoxy)imino)-5′-fluoro-[2,3′-biindolinylidene]-2′-one], the IC50 was determined as 0.37 nM on FLT3 D835Y and 1.47 nM at FLT3 WT.
Turning to `N[C@@H]1[C@H]2CN(CCO/N=C3/C(=C4/C(=O)Nc5ccc(F)cc54)Nc4ccccc43)C[C@@H]12` [Example 8, (2Z,3E)-3-((2-((1R,5S,6s)-6-amino-3-azabicyclo[3.1.0]hexan-3-yl)ethoxy)imino)-5′-fluoro-[2,3′-biindolinylidene]-2′-one], the IC50 came out at 0.303 nM on FLT3 D835Y and 1.35 nM on FLT3 WT.
For `O=C1Nc2ccc(F)cc2/C1=C1/Nc2ccccc2/C1=N\OCCN1C[C@H]2C[C@@H]1CN2` [Example 9, (2Z,3E)-3-((2-((1R,4R)-2,5-diazabicyclo[2.2.1]heptan-2-yl)ethoxy)imino)-5′-fluoro-[2,3′-biindolinylidene]-2′-one], the GI50 came to 470 pM in the assay with Molm-14 (pM) and 500 pM in the assay with Molm-13 (pM). Besides, the IC50 on FLT3 D835Y came to 0.667 nM; at FLT3 WT it was 3.87 nM.
For the molecule `O=C1Nc2ccc(F)cc2/C1=C1/Nc2ccccc2/C1=N\OCCN1C[C@@H]2C[C@H]1CN2` [Example 10, (2Z,3E)-3-((2-((1S,4S)-2,5-diazabicyclo[2.2.1]heptan-2-yl)ethoxy)imino)-5′-fluoro-[2,3′-biindolinylidene]-2′-one], the GI50 was 1860 pM in the assay on Molm-14 and 1390 pM in the assay with Molm-13. Also, the IC50 came to 0.428 nM at FLT3 D835Y and 2.41 nM at FLT3 WT.
Consider `O=C1Nc2ccccc2/C1=C1/Nc2ccccc2/C1=N\OCC(=O)N1CC2(CNC2)C1` [Example 15, (2Z,3E)-3-((2-oxo-2-(2,6-diazaspiro[3.3]heptan-2-yl)ethoxy)imino)-[2,3′-biindolinylidene]-2′-one], for which the values for the concentration for half-maximal inhibition (IC50) at FLT3 D835Y and on FLT3 WT were 0.798 nM and 3.41 nM, respectively.
Regarding `O=C(CO/N=C1/C(=C2/C(=O)Nc3ccccc32)Nc2ccccc21)N[C@H]1[C@@H]2CNC[C@@H]21` [Example 16, N-((1R,5S,6s)-3-azabicyclo[3.1.0]hexan-6-yl)-2-(((E)-((Z)-2′-oxo-[2,3′-biindolinylidene]-3-ylidene)amino)oxy)acetamide], the figures for the IC50 at FLT3 D835Y and at FLT3 WT were 0.661 nM and 3.13 nM, respectively.
The like results for `O=C1Nc2ccccc2/C1=C1/Nc2ccccc2/C1=N\OCC(=O)N1C[C@H]2C[C@@H]1CN2` [Example 17, (2Z,3E)-3-((2-((1R,4R)-2,5-diazabicyclo[2.2.1]heptan-2-yl)-2-oxoethoxy)imino)-[2,3′-biindolinylidene]-2′-one] were, in that order, 0.552 nM and 4.24 nM.
As to `O=C1Nc2ccc(F)cc2/C1=C1/Nc2ccccc2/C1=N\OCC(=O)N1CC2(CNC2)C1` [Example 18, (2Z,3E)-5′-fluoro-3-((2-oxo-2-(2,6-diazaspiro[3.3]heptan-2-yl)ethoxy)imino)-[2,3′-biindolinylidene]-2′-one], the results for the IC50 on FLT3 D835Y and at FLT3 WT were 0.306 nM and 2.15 nM, respectively.
For the molecule `O=C(CO/N=C1/C(=C2/C(=O)Nc3ccc(F)cc32)Nc2ccccc21)N[C@H]1[C@@H]2CNC[C@@H]21` [Example 19, N-((1R,5S,6s)-3-azabicyclo[3.1.0]hexan-6-yl)-2-(((E)-((Z)-5′-fluoro-2′-oxo-[2,3′-biindolinylidene]-3-ylidene)amino)oxy)acetamide], the figures for the IC50 at FLT3 D835Y and at FLT3 WT were 0.511 nM and 3.13 nM, respectively.
For `O=C1Nc2ccc(F)cc2/C1=C1/Nc2ccccc2/C1=N\OCC(=O)N1C[C@H]2C[C@@H]1CN2` [Example 20, (2Z,3E)-3-((2-((1R,4R)-2,5-diazabicyclo[2.2.1]heptan-2-yl)-2-oxoethoxy)imino)-5′-fluoro-[2,3′-biindolinylidene]-2′-one], in that order: 0.271 nM and 2.94 nM.
